Results as given in PMC12306498, “Microwave-assisted synthesis of tubulin assembly inhibitors as anticancer agents by aryl ring reversal and conjunctive approach” (RSC Medicinal Chemistry, 2025).
Where “and” joins values, the source holds several entries; their conditions need not be identical. Identical values can stand only once. Like-named read-outs stand apart in the source and are kept apart here.

Columns and labels:
tubulin [1] = experiment: Inhibition of tubulin polymerization (tubulin assembly, turbidity at 350 nm); format: biochemical; settings: tubulin at 10 μM, read-out: Tubulin IC50 ± SD
Procedure: The assembly reaction mixtures contained 0.8 M monosodium glutamate (pH 6.6 with HCl in a 2 M stock solution), 10 μM tubulin, 4% (v/v) DMSO, and varying concentrations of drug. Following a 15 min preincubation at 30 °C, samples were chilled on ice, GTP to 0.4 mM was added, and turbidity development was followed at 350 nm in a temperature-controlled recording spectrophotometer for 20 min at 30 °C. The extent of reaction was measured. Full experimental details were previously described.[35]

tubulin [2] = experiment: Inhibition of [3H]colchicine binding to tubulin; settings: for Colch. binding (% ± SD): inhibition of [3H]colchicine binding, tubulin, [3H]colchicine, inhibitor at 1, 5 and 5 μM
Procedure: The reaction mixtures contained 1.0 μM tubulin, 5.0 μM [^3H]colchicine, and 5.0 or 1.0 μM inhibitor, as indicated, and were incubated for 10 min at 37 °C. Complete details were described previously.[36]

[3] = system: MCF-7 human breast carcinoma cells; experiment: MCF-7 cell growth inhibition; format: cell-based; settings: Homo sapiens, read-out: MCF-7 IC50 ± SD
[4] = MCF7, 96 h, cells grown for 96 h

| SMILES | IC50 (tubulin [1]) [nM] | Colch. binding (% ± SD) (tubulin [2]) | IC50 ([3]; MCF7, cells grown for 96 h) [nM] | IC50 [3, 4] [nM] | Inhibition of [3H]colchicine binding (tubulin [2]; inhibitor at 1 μM, tubulin 1 μM, [3H]colchicine 5 μM) [%] |
| --- | --- | --- | --- | --- | --- |
| COc1cc(OC)cc(-c2cn(-c3ncccn3)cc2C(=O)c2cc(OC)c(OC)c(OC)c2)c1 [Compound 16, (4-(3,5-Dimethoxyphenyl)-1-(pyrimidin-2-yl)-1H-pyrrol-3-yl)(3,4,5-trimethoxyphenyl)methanone] | 1100 ± 60 | 25 ± 5% | 780 ± 40 | – | – |
| COc1cc(C(=O)c2cn(-c3ccccn3)cc2-c2ccc(Cl)cc2)cc(OC)c1OC [Compound 6, (4-(4-Chlorophenyl)-1-(pyridin-2-yl)-1H-pyrrol-3-yl)(3,4,5-trimethoxyphenyl)methanone] | 520 ± 5 | 66 ± 3% | 340 ± 60 | – | – |
| COc1cc(C(=O)c2cn(-c3ccccn3)cc2-c2ccc(N(C)C)cc2)cc(OC)c1OC [Compound 7, (4-(4-(Dimethylamino)phenyl)-1-(pyridin-2-yl)-1H-pyrrol-3-yl)(3,4,5-trimethoxyphenyl)methanone] | 430 ± 40 | 72% and 72 ± 0.2% | 120 ± 40 | – | – |
| COc1cc(C(=O)c2cn(-c3ncccn3)cc2-c2ccc(Cl)cc2)cc(OC)c1OC [Compound 20, (4-(4-Chlorophenyl)-1-(pyrimidin-2-yl)-1H-pyrrol-3-yl)(3,4,5-trimethoxyphenyl)methanone] | 760 ± 100 | 69 ± 4% | – | 68 ± 10 | – |
| COc1cc(C(=O)c2cn(-c3ncccn3)cc2-c2ccc(N3CCCCC3)cc2)cc(OC)c1OC [Compound 24, (4-(4-(Piperidin-1-yl)phenyl)-1-(pyrimidin-2-yl)-1H-pyrrol-3-yl)(3,4,5-trimethoxyphenyl)methanone] | 630 ± 40 | 35 ± 2% | 112 ± 7.7 | – | – |
| COc1cc(C(=O)c2cn(-c3ncccn3)c3ccc(F)cc23)cc(OC)c1OC [Compound 28, (5-Fluoro-1-(pyrimidin-2-yl)-1H-indol-3-yl)(3,4,5-trimethoxyphenyl)methanone] | 590 ± 100 | 45 ± 0.8% | – | 73 ± 4 | – |
| COc1cc(C(=O)c2cn(-c3cccnc3)cc2-c2ccc(Cl)cc2)cc(OC)c1OC [Compound 11, (4-(4-Chlorophenyl)-1-(pyridin-3-yl)-1H-pyrrol-3-yl)(3,4,5-trimethoxyphenyl)methanone] | 1500 ± 200 | 29 ± 4% | 1500 ± 400 | – | – |
| COc1cc(C(=O)c2cn(-c3cccnc3)cc2-c2ccc(C(F)(F)F)cc2)cc(OC)c1OC [Compound 12, (1-(Pyridin-3-yl)-4-(4-(trifluoromethyl)phenyl)-1H-pyrrol-3-yl)(3,4,5-trimethoxyphenyl)methanone] | > 20000 | – | 3900 ± 70 | – | – |
| COc1cc(C(=O)c2cn(-c3ncccn3)cc2/C=C/c2ccccc2)cc(OC)c1OC [Compound 23, (E)-(1-(pyrimidin-2-yl)-4-styryl-1H-pyrrol-3-yl)(3,4,5-trimethoxyphenyl)methanone] | 770 ± 30 | 65 ± 5% | 270 ± 10 | – | – |
| COc1ccc2c(c1)c(C(=O)c1cc(OC)c(OC)c(OC)c1)cn2-c1ncccn1 [Compound 30, (5-Methoxy-1-(pyrimidin-2-yl)-1H-indol-3-yl)(3,4,5-trimethoxyphenyl)methanone] | 380 ± 40 | 71% and 71 ± 5% | – | 220 ± 60 | – |
| COc1cc(C(=O)c2cn(-c3cccnc3)cc2-c2ccc(C)cc2)cc(OC)c1OC [Compound 9, (1-(Pyridin-3-yl)-4-(4-tolyl)-1H-pyrrol-3-yl)(3,4,5-trimethoxyphenyl)methanone] | 1900 ± 200 | 20 ± 5% | 670 ± 200 | – | – |
| COc1cc(C(=O)c2cn(-c3ncccn3)cc2-c2cc(OC)c(OC)c(OC)c2)cc(OC)c1OC [Compound 17, (1-(Pyrimidin-2-yl)-4-(3,4,5-trimethoxyphenyl)-1H-pyrrol-3-yl)(3,4,5-trimethoxyphenyl)methanone] | > 20000 | – | > 5000 | – | – |
| COc1ccc(/C=C\c2cc(OC)c(OC)c(OC)c2)cc1O [CA4, combretastatin A-4, reference compound] | – | – | – | – | 78 |
